# Assay results: US11230541B2, “Heterocyclic compound” (Takeda Pharmaceutical Company Limited, priority 2017, dated 2022)
# Target: T1, NMDA receptor composed of four subunits including 2 sets of heterodimers of NR1 and NR2B (Homo sapiens, UniProt Q13224)
# T1 construct: host or cells: HEK293 (tetracycline-induced expression)
# Experiment: NR2B Ca2+ influx assay (FLIPR, Fluo-4) in HEK293 cells expressing human GRIN1 and GRIN2B
# Assay type: cell-based
# Conditions: HEK293, 10 μM final compound concentration, glutamic acid/glycine-induced Ca2+ influx, read-out: inhibitory rate (10 μM compound concentration)
# Method in brief: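 Tetracycline-induced (2 h) HEK293 cells expressing human GRIN1/GRIN2B, Fluo-4-loaded, were preincubated 15 min at room temperature with compound at 10 μM final. FLIPR recorded Ca2+ influx every 3 s for 5 min after glutamate/glycine addition (30 μM in added buffer); inhibition from cumulative fluorescence relative to agonist-free wells.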
# T1 sequence (Q13224 27-1484, other chains not shown): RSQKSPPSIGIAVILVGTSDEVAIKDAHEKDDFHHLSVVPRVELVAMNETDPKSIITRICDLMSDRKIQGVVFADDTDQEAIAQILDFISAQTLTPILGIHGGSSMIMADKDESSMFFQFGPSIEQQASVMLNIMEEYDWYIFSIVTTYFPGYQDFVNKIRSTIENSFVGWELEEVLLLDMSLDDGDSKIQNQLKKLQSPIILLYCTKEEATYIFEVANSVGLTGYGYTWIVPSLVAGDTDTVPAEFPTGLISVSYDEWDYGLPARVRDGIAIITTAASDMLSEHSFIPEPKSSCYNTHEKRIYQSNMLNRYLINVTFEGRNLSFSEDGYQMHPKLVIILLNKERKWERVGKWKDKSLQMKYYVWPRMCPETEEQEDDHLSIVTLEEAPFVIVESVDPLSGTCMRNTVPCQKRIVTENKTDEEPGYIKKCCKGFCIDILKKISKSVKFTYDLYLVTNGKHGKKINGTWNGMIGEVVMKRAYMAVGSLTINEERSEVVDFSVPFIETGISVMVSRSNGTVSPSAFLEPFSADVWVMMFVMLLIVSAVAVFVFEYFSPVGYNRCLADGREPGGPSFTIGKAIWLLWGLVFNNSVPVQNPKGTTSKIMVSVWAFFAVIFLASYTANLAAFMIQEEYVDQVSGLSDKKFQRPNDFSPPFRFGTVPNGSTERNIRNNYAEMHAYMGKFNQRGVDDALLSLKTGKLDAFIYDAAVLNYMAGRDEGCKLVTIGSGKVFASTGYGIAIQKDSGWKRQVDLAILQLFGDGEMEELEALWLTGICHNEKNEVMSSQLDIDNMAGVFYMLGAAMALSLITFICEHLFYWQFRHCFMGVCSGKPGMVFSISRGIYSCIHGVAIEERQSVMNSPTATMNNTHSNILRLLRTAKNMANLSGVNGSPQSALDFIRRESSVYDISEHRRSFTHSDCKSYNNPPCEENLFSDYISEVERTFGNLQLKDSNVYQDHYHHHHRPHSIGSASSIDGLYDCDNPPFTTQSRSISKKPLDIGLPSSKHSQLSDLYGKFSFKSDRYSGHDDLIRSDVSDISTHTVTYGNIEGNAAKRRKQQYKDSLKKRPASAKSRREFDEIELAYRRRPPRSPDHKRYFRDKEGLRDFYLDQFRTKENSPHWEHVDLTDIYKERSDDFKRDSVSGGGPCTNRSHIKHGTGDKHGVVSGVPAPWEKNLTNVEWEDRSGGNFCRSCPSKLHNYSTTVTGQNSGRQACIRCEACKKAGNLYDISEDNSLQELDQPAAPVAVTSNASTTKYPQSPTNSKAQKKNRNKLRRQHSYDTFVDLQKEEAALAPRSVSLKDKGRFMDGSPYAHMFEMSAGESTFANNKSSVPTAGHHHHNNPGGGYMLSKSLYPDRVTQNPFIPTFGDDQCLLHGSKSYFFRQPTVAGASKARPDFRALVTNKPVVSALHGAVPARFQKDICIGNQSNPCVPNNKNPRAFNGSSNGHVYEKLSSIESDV
row,inhibition at 10 µM [%],SMILES
1,94,"CCc1ccc2[nH]nnc2c1CNC(=O)c1ccc(OC(F)(F)F)cc1 [Example 209, N-((5-ethyl-1H-benzotriazol-4-yl)methyl)-4-(trifluoromethoxy)-benzamide]"
2,90,"COc1c(F)cc(C(=O)NCc2c(F)ccc3ncn(C)c23)cc1F [Example 210, 3,5-difluoro-N-((6-fluoro-1-methyl-1H-benzimidazol-7-yl)methyl)-4-methoxybenzamide]"
3,95,"COc1c(F)cc(C(=O)NCc2cccc3[nH]nnc23)cc1F [Example 211, N-(1H-benzotriazol-4-ylmethyl)-3,5-difluoro-4-methoxybenzamide]"
4,93,"O=C(NCc1c(C2CC2)ccc2[nH]nnc12)c1ccc(OC(F)F)c(F)c1 [Example 212, N-((5-cyclopropyl-1H-benzotriazol-4-yl)methyl)-4-(difluoromethoxy)-3-fluorobenzamide]"
5,98,"COc1ccc2[nH]nnc2c1CNC(=O)c1ccc(OC(F)(F)F)cc1 [Example 213, N-((5-methoxy-1H-benzotriazol-4-yl)methyl)-4-(trifluoromethoxy)-benzamide]"
6,86,"COc1ccc2nc(C)n(C)c2c1CNC(=O)c1cc(F)c(OC)c(F)c1 [Example 214, 3,5-difluoro-4-methoxy-N-((6-methoxy-1,2-dimethyl-lH-benzimidazol-7-yl)methyl)benzamide]"
7,53,"COc1ccc2ncn(C)c2c1CNC(=O)Nc1cccc(C)c1 [Example 215, 1-((6-methoxy-1-methyl-1H-benzimidazol-7-yl)methyl)-3-(3-methylphenyl)urea]"
8,78,"COc1ccc2ncn(C)c2c1CNC(=O)Nc1cccc(F)c1 [Example 216, 1-(3-fluorophenyl)-3-((6-methoxy-l-methyl-1H-benzimidazol-7-yl)methyl)urea]"
9,82,"COc1ccc2ncn(C)c2c1CNC(=O)Nc1ccc(F)c(C)c1 [Example 217, 1-(4-fluoro-3-methylphenyl)-3-((6-methoxy-1-methyl-1H-benzimidazol-7-yl)methyl)urea]"
10,93,"COc1ccc2ncn(C)c2c1CNC(=O)Nc1ccc(C)c(F)c1 [Example 218, 1-(3-fluoro-4-methylphenyl)-3-((6-methoxy-1-methyl-1H-benzimidazol-7-yl)methyl)urea]"
11,72,"COc1ccc2ncn(C)c2c1CNC(=O)Nc1cccc(Cl)c1 [Example 219, 1-(3-chlorophenyl)-3-((6-methoxy-1-methyl-1H-benzimidazol-7-yl)methyl)urea]"
12,87,"COc1ccc2ncn(C)c2c1CNC(=O)Nc1cc(F)c(F)c(F)c1 [Example 220, 1-((6-methoxy-1-methyl-lH-benzimidazol-7-yl)methyl)-3-(3,4,5-trifluorophenyl)urea]"
13,88,"COc1ccc2ncn(C)c2c1CNC(=O)Nc1ccc(OC(F)F)cc1 [Example 221, 1-(4-(difluoromethoxy)-phenyl)-3-((6-methoxy-1-methyl-lH-benzimidazol-7-yl)methyl)urea]"
14,55,"COc1ccc2ncn(C)c2c1CNC(=O)Nc1cccc(C(F)(F)F)c1 [Example 222, 1-((6-methoxy-1-methyl-lH-benzimidazol-7-yl)methyl)-3-(3-(trifluoromethyl)-phenyl)urea]"
15,83,"COc1ccc2ncn(C)c2c1CNC(=O)Nc1ccc(OC(F)(F)F)cc1 [Example 223, 1-((6-methoxy-1-methyl-1H-benzimidazol-7-yl)methyl)-3-(4-(trifluoromethoxy)-phenyl)urea]"
16,81,"COc1ccc2ncn(C)c2c1CNC(=O)Nc1ccc(F)cc1 [Example 224, 1-(4-fluorophenyl)-3-((6-methoxy-1-methyl-1H-benzimidazol-7-yl)methyl)urea]"
17,84,"COc1ccc(NC(=O)NCc2c(OC)ccc3ncn(C)c23)cc1F [Example 225, 1-(3-fluoro-4-methoxyphenyl)-3-((6-methoxy-1-methyl-1H-benzimidazol-7-yl)methyl)urea]"
18,94,"O=C(NCc1c(C2CC2)ccc2[nH]nnc12)c1cnc(OC(F)F)c(F)c1 [Example 226, N-((5-cyclopropyl-1H-benzotriazol-4-yl)methyl)-6-(difluoromethoxy)-5-fluoronicotinamide]"
19,97,"COc1ccc2[nH]nnc2c1CNC(=O)c1ccc(OC(F)(F)F)c(F)c1 [Example 227, 3-fluoro-N-((5-methoxy-1H-benzotriazol-4-yl)methyl)-4-(trifluoromethoxy)-benzamide]"
20,70,"COc1ccc2nc(C)n(C)c2c1CNC(=O)c1csc(Cl)c1 [Example 228, 5-chloro-N-((6-methoxy-1,2-dimethyl-1H-benzimidazol-7-yl)methyl)thiophene-3-carboxamide]"

row,inhibition at 10 µM [%],SMILES
1,62,"COc1ccc2nc(C)n(C)c2c1CNC(=O)c1ccc(Cl)s1 [Example 229, 5-chloro-N-((6-methoxy-1,2-dimethyl-1H-benzimidazol-7-yl)methyl)thiophene-2-carboxamide]"
2,82,"COc1ccc2nc(C)n(C)c2c1CNC(=O)c1csc(C(F)(F)F)c1 [Example 230, N-((6-methoxy-1,2-dimethyl-1H-benzimidazol-7-yl)methyl)-5-(trifluoromethyl)-thiophene-3-carboxamide]"
3,73,"COc1ccc2nc(C)n(C)c2c1CNC(=O)c1ccc(C(F)(F)F)s1 [Example 231, N-((6-methoxy-1,2-dimethyl-lH-benzimidazol-7-yl)methyl)-5-(trifluoromethyl)-thiophene-2-carboxamide]"
4,64,"COc1ccc2nc(C)n(C)c2c1CNC(=O)c1csc(C(F)F)c1 [Example 232, 5-(difluoromethyl)-N-((6-methoxy-1,2-dimethyl-lH-benzimidazol-7-yl)methyl)thiophene-3-carboxamide]"
5,72,"COc1ccc2nc(C)n(C)c2c1CNC(=O)c1ccc(OC(F)(F)F)nc1 [Example 233, N-((6-methoxy-1,2-dimethyl-lH-benzimidazol-7-yl)methyl)-6-(trifluoromethoxy)-nicotinamide]"
6,73,"CCOc1ncc(C(=O)NCc2c(OC)ccc3nc(C)n(C)c23)cc1F [Example 234, 6-ethoxy-5-fluoro-N-((6-methoxy-1,2-dimethyl-lH-benzimidazol-7-yl)methyl)nicotinamide]"
7,57,"COc1ccc2nc(C)n(C)c2c1CNC(=O)c1cnc(OC)c(F)c1 [Example 235, 5-fluoro-6-methoxy-N-((6-methoxy-1,2-dimethyl-1H-benzimidazol-7-yl)methyl)nicotinamide]"
8,59,"COc1ccc2nc(C)n(C)c2c1CNC(=O)c1ccc(C(F)(F)F)c(F)c1 [Example 236, 3-fluoro-N-((6-methoxy-1,2-dimethyl-1H-benzimidazol-7-yl)methyl)-4-(trifluoromethyl)-benzamide]"
9,68,"COc1ccc2nc(C)n(C)c2c1CNC(=O)c1ccc(C(F)(F)F)cc1 [Example 237, N-((6-methoxy-1,2-dimethyl-1H-benzimidazol-7-yl)methyl)-4-(trifluoromethyl)-benzamide]"
10,61,"COc1ccc2nc(C)n(C)c2c1CNC(=O)c1ccc(C)c(F)c1 [Example 238, 3-fluoro-N-((6-methoxy-1,2-dimethyl-1H-benzimidazol-7-yl)methyl)-4-methylbenzamide]"
11,60,"COc1ccc2nc(C)n(C)c2c1CNC(=O)c1cc(F)c(C)c(F)c1 [Example 239, 3,5-difluoro-N-((6-methoxy-1,2-dimethyl-1H-benzimidazol-7-yl)methyl)-4-methylbenzamide]"
12,53,"COc1ccc2nc(C)n(C)c2c1CNC(=O)c1cc(F)c(C(F)F)c(F)c1 [Example 240, 4-(difluoromethyl)-3,5-difluoro-N-((6-methoxy-1,2-dimethyl-1H-benzimidazol-7-yl)methyl)benzamide]"
13,70,"COc1ccc2nc(C)n(C)c2c1CNC(=O)c1ccc(C(F)F)cc1 [Example 241, 4-(difluoromethyl)-N-((6-methoxy-1,2-dimethyl-lH-benzimidazol-7-yl)methyl)benzamide]"
14,69,"COc1ccc2nc(C)n(C)c2c1CNC(=O)c1ccc(C(F)F)c(F)c1 [Example 242, 4-(difluoromethyl)-3-fluoro-N-((6-methoxy-1,2-dimethyl-lH-benzimidazol-7-yl)methyl)benzamide]"
15,69,"COc1ccc(C(=O)NCc2c(OC)ccc3nc(C)n(C)c23)cc1F [Example 243, 3-fluoro-4-methoxy-N-((6-methoxy-1,2-dimethyl-lH-benzimidazol-7-yl)methyl)benzamide]"
16,87,"COc1ccc2nc(C)n(C)c2c1CNC(=O)c1ccc(OC(F)F)c(Cl)c1 [Example 244, 3-chloro-4-(difluoromethoxy)-N-((6-methoxy-1,2-dimethyl-lH-benzimidazol-7-yl)methyl)benzamide]"
17,81,"COc1ccc2nc(C)n(C)c2c1CNC(=O)c1ccc(OC(F)F)cc1 [Example 245, 4-(difluoromethoxy)-N-((6-methoxy-1,2-dimethyl-1H-benzimidazol-7-yl)methyl)benzamide]"
18,87,"COc1ccc2nc(C)n(C)c2c1CNC(=O)c1cc(F)c(OC(F)F)c(F)c1 [Example 246, 4-(difluoromethoxy)-3,5-difluoro-N-((6-methoxy-1,2-dimethyl-1H-benzimidazol-7-y1)methyl)benzamide]"
19,71,"COc1ccc2nc(C)n(C)c2c1CNC(=O)c1ccc(F)c(Cl)c1 [Example 247, 3-chloro-4-fluoro-N-((6-methoxy-1,2-dimethyl-1H-benzimidazol-7-yl)methyl)benzamide]"
20,64,"COc1ccc2nc(C)n(C)c2c1CNC(=O)c1ccc(Cl)c(F)c1 [Example 248, 4-chloro-3-fluoro-N-((6-methoxy-1,2-dimethyl-1H-benzimidazol-7-yl)methyl)benzamide]"
